# Earlier results in patent publication US7148022B2, “Assay for anti-viral agent” (The University Court of the University of St. Andrews, priority 2000, dated 2006).
# System: picornavirus
# Settings: background statement, refs 9 and 10
smiles,measurement,value
C[C@H]1CCC/C=C/[C@@H]2C[C@H](O)C[C@H]2[C@H](O)/C=C/C(=O)O1 [Brefeldin-A],inhibition of picornavirus replication,one of the most potent known inhibitors
